Measurements published in article PMC7562955 (Nature Communications, 2020).

Target: T1, TLR7 (Homo sapiens, UniProt Q9NYK1)
T1 sequence (Q9NYK1 27-1049): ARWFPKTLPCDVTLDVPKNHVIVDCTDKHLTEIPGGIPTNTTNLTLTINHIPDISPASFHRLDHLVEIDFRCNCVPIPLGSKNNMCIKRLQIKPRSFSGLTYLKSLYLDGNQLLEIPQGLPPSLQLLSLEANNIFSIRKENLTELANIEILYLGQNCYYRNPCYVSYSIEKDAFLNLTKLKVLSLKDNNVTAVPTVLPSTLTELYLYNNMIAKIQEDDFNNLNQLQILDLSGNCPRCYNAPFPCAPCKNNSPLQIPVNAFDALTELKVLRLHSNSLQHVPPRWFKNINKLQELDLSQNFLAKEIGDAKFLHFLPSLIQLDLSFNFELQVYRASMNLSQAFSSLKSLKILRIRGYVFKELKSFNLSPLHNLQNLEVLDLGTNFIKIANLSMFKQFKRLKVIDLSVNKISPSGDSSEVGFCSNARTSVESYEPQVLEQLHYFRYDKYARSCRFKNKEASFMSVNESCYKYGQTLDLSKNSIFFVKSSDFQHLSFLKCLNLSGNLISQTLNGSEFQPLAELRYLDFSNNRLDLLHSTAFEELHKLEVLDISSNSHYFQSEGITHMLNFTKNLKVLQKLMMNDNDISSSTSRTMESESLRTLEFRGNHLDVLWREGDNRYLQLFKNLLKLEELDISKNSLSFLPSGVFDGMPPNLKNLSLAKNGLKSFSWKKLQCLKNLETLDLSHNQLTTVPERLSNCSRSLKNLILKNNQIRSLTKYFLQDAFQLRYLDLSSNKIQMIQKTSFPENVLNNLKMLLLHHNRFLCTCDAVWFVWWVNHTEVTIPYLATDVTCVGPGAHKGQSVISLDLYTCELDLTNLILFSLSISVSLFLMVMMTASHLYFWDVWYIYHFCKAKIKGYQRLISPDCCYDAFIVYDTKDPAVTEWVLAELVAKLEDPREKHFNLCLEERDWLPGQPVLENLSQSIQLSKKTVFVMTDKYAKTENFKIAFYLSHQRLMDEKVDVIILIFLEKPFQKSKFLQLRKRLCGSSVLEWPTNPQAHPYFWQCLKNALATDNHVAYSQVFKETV
Assay: Dose-response relationship between antagonist and R848, human TLR7 reporter gene assay
Format: cell-based
Set-up: host or cells: HEK293 (TLR7/NF-κB/SEAPorter)
Method: Compounds were dissolved in dimethyl sulfoxide. Human TLR7 reporter cell line (Novus Biological) were seeded in 96-well microtiter plate (AGC techno glass) at 5 × 10^4 cells/well in DMEM (GIBCO) with 10% fetal bovine serum (GIBCO), and 10 μg ml^−1 Blastcidin S HCl (GIBCO) and incubated at 37 °C in 5% CO2. The plates were incubated over-night and then addition with various concentrations of compound. After 30 min, R848 (human TLR7/8 ligand) that was diluted with the medium was added, wherein final concentration was adjusted to 0.01, 0.03, 0.1, 0.3, 1, 3, 10, 30, 100, 300 and 1000 μM. The plates were then incubated an additional 20 ± 1 h at 37 °C in 5% CO2, and then the SEAP activity was measured as activation of human TLR7. The SEAP activity was evaluated as follows: pNPP (Invitrogen) was added to the incubated sample (50 μl/well); after 15 min, 4 mol l^−1 sodium hydroxide solution (nacalai tesque) was added thereto (50 μl/well) to quench the reaction; and the absorbance of each sample was measured at 405 nm with microplate reader SpectraMax M4 (Molecular Devices).

For `CCOc1nc(C)c2nc(-c3cncc(F)c3)n(Cc3ccc(CN4C[C@@H]5C[C@H]4CN5C)cc3)c2n1` [Cpd-7], the “mode of action against R848” value was “acted as antagonists”, the TLR7 reporter signal (Cpd-7 0.001 µM, log10[R848 (µM)] 0) was 15.1994 and the TLR7 reporter signal (Cpd-7 0.001 µM, log10[R848 (µM)] 0.477121) was 53.0748. The TLR7 reporter signal (Cpd-7 0.001 µM, log10[R848 (µM)] 1) was 91.3639, the TLR7 reporter signal (Cpd-7 0.001 µM, log10[R848 (µM)] 1.47712) was 103.082 and the TLR7 reporter signal (Cpd-7 0.001 µM, log10[R848 (µM)] 2) was 104.508. It also gave a TLR7 reporter signal (Cpd-7 0.001 µM, log10[R848 (µM)] 2.47712) of 104.681, a TLR7 reporter signal (Cpd-7 0.001 µM, log10[R848 (µM)] 3) of 101.38 and a TLR7 reporter signal (Cpd-7 0.001 µM, log10[R848 (µM)] -0.522879) of 2.983. The TLR7 reporter signal (Cpd-7 0.001 µM, log10[R848 (µM)] -1) was 1.3957, the TLR7 reporter signal (Cpd-7 0.001 µM, log10[R848 (µM)] -1.52288) was 1.22 and the TLR7 reporter signal (Cpd-7 0.001 µM, log10[R848 (µM)] -2) was 0.09581. It also gave a TLR7 reporter signal (Cpd-7 0.003 µM, log10[R848 (µM)] 0) of 11.9465, a TLR7 reporter signal (Cpd-7 0.003 µM, log10[R848 (µM)] 0.477121) of 48.0206 and a TLR7 reporter signal (Cpd-7 0.003 µM, log10[R848 (µM)] 1) of 90.4952. For the same compound, the TLR7 reporter signal (Cpd-7 0.003 µM, log10[R848 (µM)] 1.47712) was 102.689, the TLR7 reporter signal (Cpd-7 0.003 µM, log10[R848 (µM)] 2) was 104.173 and the TLR7 reporter signal (Cpd-7 0.003 µM, log10[R848 (µM)] 2.47712) was 102.967. For the same compound, the TLR7 reporter signal (Cpd-7 0.003 µM, log10[R848 (µM)] 3) was 101.934, the TLR7 reporter signal (Cpd-7 0.003 µM, log10[R848 (µM)] -0.522879) was 2.073 and the TLR7 reporter signal (Cpd-7 0.003 µM, log10[R848 (µM)] -1) was 1.332. For the same compound, the TLR7 reporter signal (Cpd-7 0.003 µM, log10[R848 (µM)] -1.52288) was 1.335, the TLR7 reporter signal (Cpd-7 0.003 µM, log10[R848 (µM)] -2) was -0.4152 and the TLR7 reporter signal (Cpd-7 0.01 µM, log10[R848 (µM)] 3) was 101.214. It also gave a TLR7 reporter signal (Cpd-7 0.1 µM, log10[R848 (µM)] 0) of 3.483, a TLR7 reporter signal (Cpd-7 0.1 µM, log10[R848 (µM)] 0.477121) of 8.9858 and a TLR7 reporter signal (Cpd-7 0.1 µM, log10[R848 (µM)] 1) of 46.2209. The TLR7 reporter signal (Cpd-7 0.1 µM, log10[R848 (µM)] 1.47712) was 89.5722, the TLR7 reporter signal (Cpd-7 0.1 µM, log10[R848 (µM)] 2) was 103.066 and the TLR7 reporter signal (Cpd-7 0.1 µM, log10[R848 (µM)] 2.47712) was 105.195. For the same compound, the TLR7 reporter signal (Cpd-7 0.1 µM, log10[R848 (µM)] 3) was 99.2702, the TLR7 reporter signal (Cpd-7 0.1 µM, log10[R848 (µM)] -0.522879) was 1.691 and the TLR7 reporter signal (Cpd-7 0.1 µM, log10[R848 (µM)] -1) was 1.377. It also gave a TLR7 reporter signal (Cpd-7 0.1 µM, log10[R848 (µM)] -1.52288) of 1.495, a TLR7 reporter signal (Cpd-7 0.1 µM, log10[R848 (µM)] -2) of -0.1134 and a TLR7 reporter signal (Cpd-7 0.3 µM, log10[R848 (µM)] 0) of 1.803. It also gave a TLR7 reporter signal (Cpd-7 0.3 µM, log10[R848 (µM)] 0.477121) of 3.628, a TLR7 reporter signal (Cpd-7 0.3 µM, log10[R848 (µM)] 1) of 15.5922 and a TLR7 reporter signal (Cpd-7 0.3 µM, log10[R848 (µM)] 1.47712) of 56.9825. For the same compound, the TLR7 reporter signal (Cpd-7 0.3 µM, log10[R848 (µM)] 2) was 94.1266, the TLR7 reporter signal (Cpd-7 0.3 µM, log10[R848 (µM)] 2.47712) was 104.981 and the TLR7 reporter signal (Cpd-7 0.3 µM, log10[R848 (µM)] 3) was 99.9984. The TLR7 reporter signal (Cpd-7 0.3 µM, log10[R848 (µM)] -0.522879) was 2.988, the TLR7 reporter signal (Cpd-7 0.3 µM, log10[R848 (µM)] -1) was 1.0827 and the TLR7 reporter signal (Cpd-7 0.3 µM, log10[R848 (µM)] -1.52288) was 0.3928. For the same compound, the TLR7 reporter signal (Cpd-7 0.3 µM, log10[R848 (µM)] -2) was -0.2667, the TLR7 reporter signal (Cpd-7 1 µM, log10[R848 (µM)] 0) was 1.865 and the TLR7 reporter signal (Cpd-7 1 µM, log10[R848 (µM)] 0.477121) was 1.87. For the same compound, the TLR7 reporter signal (Cpd-7 1 µM, log10[R848 (µM)] 1) was 3.318 and the TLR7 reporter signal (Cpd-7 1 µM, log10[R848 (µM)] 1.47712) was 15.4645.
